Series [1] relates to reserpine-induced hypothermia in mice. The experiment in a line: RHL test: reversal of reserpine-induced hypothermia in mice. The format is in vivo. To be noted: 4 hours, over a large number of tests, reserpine 2 mg./kg. s.c. 17 h before. The protocol:
This effect is the one primarily used in the art for establishing the relative antidepressant activity in a series of chemically-related compounds. […] Pharmacol., 1962, 14, 509. The RHL test is carried out as follows:-
Mice are kept in a constant temperature room maintained at 21° ± 1° C. Each member of groups of 4 mice is given reserpine (2 mg. of base per kg. bodyweight, given subcutaneously as the acetate). Seventeen hours later the oesophageal temperature (TO) of each mouse is recorded by means of an orally-inserted probe coupled to an electric thermometer which is calibrated in degree Centigrade and which can be read to 0.1° C. Immediately after the temperature measurement the mice are dosed orally with the test compound, or with imipramine, each mouse in a group of 4 being given the same substance, and the oesophageal temperatures are again recorded after 4 hours (T4). The compound under test is dosed at serial dilutions, e.g. 100, 30, 3, 1, 0.3, 0.1 mg./kg. Imipramine is used as the control. […] At 1 mg./kg. it produces an average rise of 1.7° C. A test compound which at a certain dose level gives a rise in temperature equal to or greater than that given by 1 mg./kg. of imipramine, dosed to a different set of mice on the same day, is adjudged "active" at that dose.

The nature of series [2]: Oral LD50 in mice. To be noted: mouse, in vivo, dosed orally. Here is the method:
The compound of the invention 2-(4H-2,3-dihydro-1,4-benzoxazin-3-one-4-ylmethyl)morpholine hydrogen oxalate has an LD50 in mice of 800 mg./kg. when dosed orally.

Each structure is given as a SMILES string. Structures can show the parent of a compound that is named as a salt.

In the case of `CN(C)CCCN1c2ccccc2CCc2ccccc21` [imipramine], the figures for the “average rise in the temperature of a reserpinised mouse” value in series [1] (1 mg./kg. oral) and in series [1] (3 mg./kg. oral) were 1.7 °C and 3 °C, respectively. The LD50 is the dose at which mortality reaches 50%. A low value points to a more toxic substance. For `O=C1COc2ccccc2N1CC1CNCCO1` (stereo not drawn) [2-(4H-2,3-dihydro-1,4-benzoxazin-3-one-4-ylmethyl)morpholine hydrogen oxalate], in series [2], the 50% lethal dose (LD50) is 800 mg/kg.
